Assay: xn = mol fraction of the nth substance listed
Settings: 101 kPa, Liquid

CN1CCCC1=O [N-methylpyrrolidone] + c1ccccc1
Settings	mass density [kg/m3]
293.15 K, x2 = 0	1032.66
293.15 K, x2 = 0.0434	1027.48
293.15 K, x2 = 0.1023	1020.3
293.15 K, x2 = 0.1625	1012.78
293.15 K, x2 = 0.2237	1004.93
293.15 K, x2 = 0.2834	997.06
293.15 K, x2 = 0.3457	988.6
293.15 K, x2 = 0.4015	980.8
293.15 K, x2 = 0.4865	968.47
293.15 K, x2 = 0.5421	960.08
293.15 K, x2 = 0.6154	948.61
293.15 K, x2 = 0.6854	937.17
293.15 K, x2 = 0.7549	925.31
293.15 K, x2 = 0.8254	912.73
293.15 K, x2 = 0.9002	898.74
293.15 K, x2 = 0.9772	883.6
303.15 K, x2 = 0	1023.42
303.15 K, x2 = 0.0444	1018.04
303.15 K, x2 = 0.1165	1009.11
303.15 K, x2 = 0.1854	1000.32
303.15 K, x2 = 0.2539	991.32
303.15 K, x2 = 0.3296	981.02
303.15 K, x2 = 0.3965	971.6
303.15 K, x2 = 0.4653	961.58
303.15 K, x2 = 0.5362	950.85
303.15 K, x2 = 0.6033	940.29
303.15 K, x2 = 0.6798	927.73
303.15 K, x2 = 0.7451	916.54
303.15 K, x2 = 0.8125	904.52
303.15 K, x2 = 0.8847	891.05
303.15 K, x2 = 0.9245	883.36
303.15 K, x2 = 0.9799	872.31
313.15 K, x2 = 0	1014.27
313.15 K, x2 = 0.0454	1008.7
313.15 K, x2 = 0.1054	1001.17
313.15 K, x2 = 0.1765	992
313.15 K, x2 = 0.2365	984.05
313.15 K, x2 = 0.2965	975.88
313.15 K, x2 = 0.3654	966.2
313.15 K, x2 = 0.4368	955.82
313.15 K, x2 = 0.5012	946.12
313.15 K, x2 = 0.5687	935.58
313.15 K, x2 = 0.6358	924.71
313.15 K, x2 = 0.6954	914.69
313.15 K, x2 = 0.7658	902.39
313.15 K, x2 = 0.8326	890.21
313.15 K, x2 = 0.9036	876.72
313.15 K, x2 = 0.9684	863.87
323.15 K, x2 = 0	1005.62
323.15 K, x2 = 0.0521	999.09
323.15 K, x2 = 0.1245	989.78
323.15 K, x2 = 0.1987	979.96
323.15 K, x2 = 0.2541	972.41
323.15 K, x2 = 0.3214	962.98
323.15 K, x2 = 0.3854	953.74
323.15 K, x2 = 0.4215	948.4
323.15 K, x2 = 0.4854	938.69
323.15 K, x2 = 0.5411	929.98
323.15 K, x2 = 0.6124	918.42
323.15 K, x2 = 0.6854	906.11
323.15 K, x2 = 0.7214	899.84
323.15 K, x2 = 0.7984	885.99
323.15 K, x2 = 0.8598	874.48
323.15 K, x2 = 0.9249	861.81
333.15 K, x2 = 0	996.28
333.15 K, x2 = 0.0451	990.55
333.15 K, x2 = 0.1025	983.11
333.15 K, x2 = 0.1632	975.06
333.15 K, x2 = 0.2302	965.93
333.15 K, x2 = 0.2987	956.32
333.15 K, x2 = 0.3512	948.74
333.15 K, x2 = 0.4215	938.29
333.15 K, x2 = 0.4865	928.31
333.15 K, x2 = 0.5521	917.9
333.15 K, x2 = 0.6213	906.51
333.15 K, x2 = 0.6895	894.85
333.15 K, x2 = 0.7451	885.02
333.15 K, x2 = 0.8145	872.3
333.15 K, x2 = 0.8865	858.55
333.15 K, x2 = 0.9654	842.8
343.15 K, x2 = 0	987.39
343.15 K, x2 = 0.0414	982.03
343.15 K, x2 = 0.1154	972.25
343.15 K, x2 = 0.1874	962.43
343.15 K, x2 = 0.2564	952.76
343.15 K, x2 = 0.3248	942.88
343.15 K, x2 = 0.3965	932.18
343.15 K, x2 = 0.4685	921.08
343.15 K, x2 = 0.5384	909.92
343.15 K, x2 = 0.5968	900.27
343.15 K, x2 = 0.6622	889.13
343.15 K, x2 = 0.7321	876.77
343.15 K, x2 = 0.7954	865.17
343.15 K, x2 = 0.8541	854.04
343.15 K, x2 = 0.9123	842.63
343.15 K, x2 = 0.9799	828.9
